Experimental data reported in ChEMBL document CHEMBL4431301, “The Medicinal Chemistry of Dengue Virus” (J Med Chem, 2016).
pEC50, pIC50, pKi: −log10 of the molar value.

What was measured:
[1] = test system: West Nile virus; assay: Antiviral activity against West Nile virus NY99 infected in african green monkey Vero cells assessed as reduction in viral titer preincubated for 2 hrs measured after 4 days by qRT-PCR; format: functional, organism-based
[2] = test system: dengue virus type 1; assay: Antiviral activity against Dengue virus 1 by CFI assay; format: functional, organism-based
[3] = test system: dengue virus type 2; assay: Antiviral activity against Dengue virus 2 NGC infected in african green monkey Vero cells assessed as reduction in viral titer preincubated for 2 hrs measured after 4 days by qRT-PCR; format: functional, organism-based
[4] = Inhibition of GST-fused Imp-alpha/beta1 (unknown origin) binding to Dengue virus NS5 after 2 hrs by alpha screen assay; design: species or system Homo sapiens
[5] = test system: dengue virus type 2; assay: Antiviral activity against Dengue virus 2 by CFI assay; format: functional, organism-based
[6] = test system: dengue virus type 4; assay: Antiviral activity against Dengue virus 4 by CFI assay; format: functional, organism-based
[7] = test system: dengue virus type 3; assay: Antiviral activity against Dengue virus 3 by CFI assay; format: functional, organism-based
[8] = test system: dengue virus type 2; assay: Antiviral activity against Dengue virus 2 Taiwanese PL046 infected in BHK21 cells after 48 hrs by plaque assay; format: functional, organism-based; details: Taiwanese PL046, BHK-21, 48 h
[9] = test system: West Nile virus; assay: Antiviral activity against West Nile virus Kunjin preincubated for 30 mins with virus followed by cell infection for 2 hrs measured after 3 days by crystal violet staining based plaque reduction assay; format: functional, organism-based
[10] = test system: dengue virus type 2; assay: Antiviral activity against Dengue virus 2 NGC preincubated for 30 mins with virus followed by cell infection for 2 hrs measured after 5 days by immunostaining based plaque reduction assay; format: functional, organism-based
[11] = test system: Yellow fever virus; assay: Antiviral activity against Yellow fever virus 17D Vaccine preincubated for 30 mins with virus followed by cell infection for 2 hrs measured after 6 days by crystal violet staining based plaque reduction assay; format: functional, organism-based
[12] = Selectivity index, ratio of CC50 for african green monkey Vero cells to EC50 for Dengue virus 2 NGC; format: toxicity; details: read-out: Ratio CC50/EC50
[13] = test system: dengue virus type 2; assay: Antiviral activity against Dengue virus 2 NGC infected in african green monkey Vero cells assessed as reduction in viral titer at 17 uM after 44 hrs relative to control; format: functional
[14] = test system: dengue virus type 2; assay: Antiviral activity against Dengue virus 2 NGC infected in african green monkey Vero cells assessed as reduction in viral titer at 6 uM after 44 hrs relative to control; format: functional
[15] = Inhibition of N-terminal GST tagged recombinant Dengue virus 3 N-7 methyltransferase expressed in Escherichia coli BL21 cells by scintillation counting analysis; design: species or system dengue virus type 3
[16] = biological target: Nonstructural protein 5 (Dengue virus, UniProt V5TFZ2); assay: Inhibition of N-terminal GST tagged recombinant Dengue virus 3 2'-O methyltransferase expressed in Escherichia coli BL21 cells by scintillation counting analysis; design: species or system dengue virus type 3
Sequence of Nonstructural protein 5 (V5TFZ2 whole entry): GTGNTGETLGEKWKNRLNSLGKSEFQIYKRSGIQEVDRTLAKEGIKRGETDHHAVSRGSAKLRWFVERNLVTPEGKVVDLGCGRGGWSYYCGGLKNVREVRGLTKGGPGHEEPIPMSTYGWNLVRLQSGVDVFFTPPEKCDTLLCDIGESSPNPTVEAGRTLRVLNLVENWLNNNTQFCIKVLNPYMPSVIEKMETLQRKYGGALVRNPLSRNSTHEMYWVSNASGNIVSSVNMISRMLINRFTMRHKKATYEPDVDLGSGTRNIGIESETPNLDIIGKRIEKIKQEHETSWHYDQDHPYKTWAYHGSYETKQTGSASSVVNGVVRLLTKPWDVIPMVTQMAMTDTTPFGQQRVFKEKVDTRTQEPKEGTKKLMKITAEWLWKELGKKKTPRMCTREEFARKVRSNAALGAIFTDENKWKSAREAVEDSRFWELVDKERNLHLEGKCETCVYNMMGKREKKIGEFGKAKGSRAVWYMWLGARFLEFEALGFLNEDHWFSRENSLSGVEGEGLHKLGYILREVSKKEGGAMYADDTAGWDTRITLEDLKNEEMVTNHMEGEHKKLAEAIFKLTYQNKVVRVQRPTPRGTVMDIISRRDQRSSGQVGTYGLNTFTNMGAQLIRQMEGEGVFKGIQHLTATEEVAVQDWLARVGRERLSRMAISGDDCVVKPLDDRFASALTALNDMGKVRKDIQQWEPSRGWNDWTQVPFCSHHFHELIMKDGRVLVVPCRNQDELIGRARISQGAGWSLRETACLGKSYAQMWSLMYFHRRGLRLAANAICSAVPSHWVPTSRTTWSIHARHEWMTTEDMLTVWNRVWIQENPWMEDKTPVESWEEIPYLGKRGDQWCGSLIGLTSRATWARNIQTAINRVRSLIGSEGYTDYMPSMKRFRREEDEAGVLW

[17] = test system: dengue virus type 2; assay: Antiviral activity against Dengue virus 2 PL046 infected in human WS1 cells by immunofluorescence analysis; format: functional, organism-based
[18] = test system: dengue virus type 2; assay: Antiviral activity against Dengue virus 2 PL046 infected in human A549 cells by immunofluorescence analysis; format: functional, organism-based
[19] = test system: dengue virus type 2; assay: Antiviral activity against Dengue virus 2 PL046 infected in mouse J774A.1 cells by immunofluorescence analysis; format: functional, organism-based; details: PL046, J774.A1
[20] = test system: dengue virus type 2; assay: Antiviral activity against Dengue virus 2 PL046 infected in […] Hepa1-6 cells by immunofluorescence analysis; format: functional, organism-based; details: PL046, Hepa1-6
[21] = test system: West Nile virus; assay: Antiviral activity against West Nile virus infected in african green monkey Vero cells assessed as reduction in viral titer after 42 hrs by plaque assay; format: functional
[22] = test system: dengue virus type 2; assay: Antiviral activity against Dengue virus 2 NGC infected in african green monkey Vero cells assessed as reduction in viral titer after 42 hrs by plaque assay; format: functional
[23] = Inhibition of yeast alpha-glucosidase by double reciprocal plot method; design: species or system Saccharomyces cerevisiae
[24] = test system: dengue virus type 1; assay: Antiviral activity against Dengue virus 1 West Pacific infected in human A549 cells assessed as reduction in viral titer after 48 hrs by plaque assay; format: functional, organism-based; details: A549, 48 h
[25] = test system: dengue virus type 2; assay: Antiviral activity against Dengue virus 2 NGC infected in HeLa cells assessed as reduction in viral RNA replication after 48 hrs by luciferase assay; format: functional, organism-based
[26] = test system: dengue virus type 3; assay: Antiviral activity against Dengue virus 3 34640 infected in human A549 cells assessed as reduction in viral titer after 48 hrs by plaque assay; format: functional, organism-based; details: Dengue virus, 34640, A549, 48 h
[27] = test system: dengue virus type 2; assay: Antiviral activity against Dengue virus 2 NGC infected in human A549 cells assessed as reduction in viral titer after 48 hrs by plaque assay; format: functional, organism-based; details: A549, 48 h
[28] = test system: dengue virus type 4; assay: Antiviral activity against Dengue virus 4 22713 infected in BHK21 cells assessed as reduction in viral titer after 48 hrs by plaque assay; format: functional, organism-based; details: Dengue virus, 22713, BHK-21, 48 h

IVERMECTIN gave a pEC50 [1] of 5.40, a pEC50 [2] of 5.80 to 5.92 and a pEC50 [3] of 6.15. The pIC50 [4] was 4.77, the pEC50 [5] was 5.80 to 5.92 and the pEC50 [6] was 5.80 to 5.92. It also gave a pEC50 [7] of 5.80 to 5.92.
Work on `CCCCCCCCCCN1[C@H](CO)[C@@H](O)[C@H](O)[C@H]1CNC(=O)C1Cc2ccccc21` (stereo partly drawn) yielded a pEC50 [8] of 5.33.
`C/C(=N\Nc1ccccc1)c1sc(-c2cc(Cl)nc(Oc3ccc(Cl)cc3)c2)nc1C` showed a pIC50 [9] of 5.42, a pIC50 [10] of 5.92 and a pIC50 [11] of 5.80. It also gave a selectivity ratio [12] of over 83.
With `O=C(Nc1cccc(Cn2cc(-c3cccc(S(=O)(=O)Nc4ccccc4C(=O)O)c3)cn2)c1)c1ccc(C(=O)c2ccccc2)cc1` the “fold change (FC)” value [13] was 4.5 and the “fold change (FC)” value [14] was 3.4.
Work on `N[C@@H](CCSC[C@H]1O[C@@H](n2cnc3c(NCc4cccc(Cl)c4)ncnc32)[C@H](O)[C@@H]1O)C(=O)O` yielded a pKi [15] of 6.09 and a pKi [16] of 6.77.
With `CCN(CCO)CCCC(C)Nc1ccnc2cc(Cl)ccc12` (stereo not drawn) [HYDROXYCHLOROQUINE] the pIC50 [17] was 4.89 to 5.01, the pIC50 [18] was 4.89 to 5.01 and the pIC50 [19] was 4.89 to 5.01. It also gave a pIC50 [20] of 4.89 to 5.01.
`COC(=O)c1c(-c2c(Cl)cccc2Cl)noc1-c1cnn(-c2cccc(Cl)c2)c1C(F)(F)F` gave an EC90 [21] of 0.00031 µM and an EC90 [22] of 0.0052 µM.
In the case of `O=C(NC[C@H]1N[C@H](CO)[C@@H](O)[C@@H]1O)C1Cc2ccccc21` (stereo partly drawn), the pKi [23] was 7.28.
With `O=C1C[C@]2(C(=O)Nc3ccc(Cl)cc32)c2cnn(Cc3ccc(Cl)cc3)c2N1` the pEC50 [24] was under 4.70, the pEC50 [25] was 5.72 and the pEC50 [26] was 7.10 to 8.00. For the same molecule, the pEC50 [27] was 7.10 to 8.00 and the pEC50 [28] was under 4.70.
